Calls of active or inactive are those of the source.
Assays:
HeLa = assay: HeLa cell cytotoxicity, dose response, cytotoxicity control, 24 h, cherry-picked samples (AID 504726); format: functional, cell-based; details: Homo sapiens;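 also: potency for cytotoxicity as loss of luminescence signal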
X-box-binding protein 1 = target: T1, X-box-binding protein 1 (Homo sapiens, UniProt P17861); format: functional, Cricetulus griseus;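 also: confirmatory dose-response counter-screen serving a CHOP assay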
T1 sequence (P17861 whole entry): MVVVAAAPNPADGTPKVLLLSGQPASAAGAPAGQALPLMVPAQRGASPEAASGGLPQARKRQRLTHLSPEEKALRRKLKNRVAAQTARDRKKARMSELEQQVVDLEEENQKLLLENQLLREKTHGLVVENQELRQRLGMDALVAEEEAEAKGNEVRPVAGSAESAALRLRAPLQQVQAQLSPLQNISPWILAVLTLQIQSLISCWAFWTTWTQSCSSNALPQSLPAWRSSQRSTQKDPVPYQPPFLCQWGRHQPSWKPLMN

NS3 = NS3 (Hepatitis C virus, UniProt A3EZJ3); assay: PubChem AID 2173; parameters: species or system Hepacivirus hominis
NS3, sequence (A3EZJ3 whole entry): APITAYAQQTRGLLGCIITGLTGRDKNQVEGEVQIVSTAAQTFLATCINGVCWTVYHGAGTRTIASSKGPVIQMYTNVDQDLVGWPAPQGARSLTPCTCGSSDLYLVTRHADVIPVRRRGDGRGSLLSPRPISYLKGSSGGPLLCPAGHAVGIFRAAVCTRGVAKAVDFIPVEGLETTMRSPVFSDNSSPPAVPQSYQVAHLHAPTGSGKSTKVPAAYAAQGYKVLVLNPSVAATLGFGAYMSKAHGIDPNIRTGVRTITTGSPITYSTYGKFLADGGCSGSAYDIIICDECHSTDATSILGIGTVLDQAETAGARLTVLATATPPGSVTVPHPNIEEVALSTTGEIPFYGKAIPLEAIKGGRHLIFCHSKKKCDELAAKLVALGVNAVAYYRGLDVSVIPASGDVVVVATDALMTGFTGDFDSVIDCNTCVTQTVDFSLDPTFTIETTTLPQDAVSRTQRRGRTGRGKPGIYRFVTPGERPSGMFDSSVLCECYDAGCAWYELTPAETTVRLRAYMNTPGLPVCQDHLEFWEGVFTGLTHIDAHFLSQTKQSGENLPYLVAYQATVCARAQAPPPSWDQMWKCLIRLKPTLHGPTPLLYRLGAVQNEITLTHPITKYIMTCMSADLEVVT

[1] = cytotoxicity in HMLE control line with eGFP shRNA, dose response, counter-screen for HMLE_sh_ECad selective toxicity project, cell-based, HMLE_sh_eGFP, luminescence (AID 463074); format: functional, Homo sapiens;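 also: HMLE human mammary epithelial cells expressing control shRNA against eGFP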
[2] = Luminescence Cell-Based Dose Retest to Confirm Inhibitors of Cancer Stem Cells. [Related pubchem assays (depositor defined):AID2717, AID2721]; format: functional; details: Homo sapiens
[3] = target: Peroxisome proliferator-activated receptor gamma/Nuclear receptor coactivator 3 (Homo sapiens, UniProt P37231); format: functional;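 also: agonist potency for raising coactivator recruitment to the receptor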
Peroxisome proliferator-activated receptor gamma/Nuclear receptor coactivator 3, sequence (P37231 whole entry): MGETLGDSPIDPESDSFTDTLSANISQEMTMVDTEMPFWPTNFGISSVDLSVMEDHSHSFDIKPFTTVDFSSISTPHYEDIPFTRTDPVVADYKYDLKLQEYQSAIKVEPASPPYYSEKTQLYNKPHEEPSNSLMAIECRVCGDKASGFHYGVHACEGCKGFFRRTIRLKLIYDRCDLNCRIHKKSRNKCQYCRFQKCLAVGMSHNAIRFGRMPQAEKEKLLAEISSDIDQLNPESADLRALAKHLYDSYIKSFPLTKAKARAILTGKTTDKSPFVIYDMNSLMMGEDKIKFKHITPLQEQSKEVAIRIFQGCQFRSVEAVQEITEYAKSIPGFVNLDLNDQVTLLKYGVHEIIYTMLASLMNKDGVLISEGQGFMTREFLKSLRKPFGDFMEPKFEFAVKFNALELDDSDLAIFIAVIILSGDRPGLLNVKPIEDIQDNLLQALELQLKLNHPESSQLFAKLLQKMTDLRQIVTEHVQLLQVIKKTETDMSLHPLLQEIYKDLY
Peroxisome proliferator-activated receptor gamma/Nuclear receptor coactivator 3, sequence (Q9Y6Q9 whole entry, further chain): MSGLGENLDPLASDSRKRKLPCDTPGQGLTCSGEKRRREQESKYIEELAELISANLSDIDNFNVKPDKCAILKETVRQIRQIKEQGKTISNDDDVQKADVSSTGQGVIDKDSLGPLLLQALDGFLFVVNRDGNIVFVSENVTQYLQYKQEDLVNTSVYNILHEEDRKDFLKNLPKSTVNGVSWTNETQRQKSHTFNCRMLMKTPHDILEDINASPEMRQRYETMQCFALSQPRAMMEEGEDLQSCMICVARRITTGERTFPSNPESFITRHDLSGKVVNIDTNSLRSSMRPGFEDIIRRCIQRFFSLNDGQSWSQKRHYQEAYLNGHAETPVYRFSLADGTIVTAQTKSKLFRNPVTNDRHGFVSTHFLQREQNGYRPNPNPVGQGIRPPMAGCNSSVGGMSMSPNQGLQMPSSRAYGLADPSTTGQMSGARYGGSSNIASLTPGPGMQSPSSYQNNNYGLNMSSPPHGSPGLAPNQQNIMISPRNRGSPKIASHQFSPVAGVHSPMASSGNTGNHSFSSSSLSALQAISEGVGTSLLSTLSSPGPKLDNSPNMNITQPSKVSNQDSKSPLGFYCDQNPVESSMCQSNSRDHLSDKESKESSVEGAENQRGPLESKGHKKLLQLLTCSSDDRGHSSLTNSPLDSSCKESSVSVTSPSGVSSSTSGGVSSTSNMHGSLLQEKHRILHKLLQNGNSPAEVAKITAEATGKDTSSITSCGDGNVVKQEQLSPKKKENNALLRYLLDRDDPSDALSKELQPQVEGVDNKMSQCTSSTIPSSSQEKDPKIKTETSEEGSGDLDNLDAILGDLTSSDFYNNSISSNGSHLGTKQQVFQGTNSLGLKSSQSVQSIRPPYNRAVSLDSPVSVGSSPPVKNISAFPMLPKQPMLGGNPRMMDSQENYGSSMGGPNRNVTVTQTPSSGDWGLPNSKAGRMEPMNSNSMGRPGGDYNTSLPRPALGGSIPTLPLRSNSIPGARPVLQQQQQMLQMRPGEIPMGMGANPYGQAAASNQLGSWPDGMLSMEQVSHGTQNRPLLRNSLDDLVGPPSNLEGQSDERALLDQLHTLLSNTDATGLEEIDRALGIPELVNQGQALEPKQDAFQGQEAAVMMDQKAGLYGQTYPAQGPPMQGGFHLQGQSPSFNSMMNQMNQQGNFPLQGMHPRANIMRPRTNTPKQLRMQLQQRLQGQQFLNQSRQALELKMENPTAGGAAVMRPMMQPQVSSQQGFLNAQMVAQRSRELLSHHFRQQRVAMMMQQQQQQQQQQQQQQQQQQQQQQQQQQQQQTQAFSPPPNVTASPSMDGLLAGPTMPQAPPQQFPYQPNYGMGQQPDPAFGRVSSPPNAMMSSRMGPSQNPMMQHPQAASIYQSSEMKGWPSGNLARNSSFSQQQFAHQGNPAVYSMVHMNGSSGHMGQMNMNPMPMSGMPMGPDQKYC

[4] = target: Peroxisome proliferator-activated receptor gamma/Nuclear receptor coactivator 2 (Homo sapiens, UniProt P37231); format: functional;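 also: agonist potency for raising coactivator recruitment to the receptor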
fMet-Leu-Phe receptor = target: T2, fMet-Leu-Phe receptor (Homo sapiens, UniProt P21462); assay: FPR ligands, dose response (AID 519); format: functional
T2 sequence (P21462 whole entry): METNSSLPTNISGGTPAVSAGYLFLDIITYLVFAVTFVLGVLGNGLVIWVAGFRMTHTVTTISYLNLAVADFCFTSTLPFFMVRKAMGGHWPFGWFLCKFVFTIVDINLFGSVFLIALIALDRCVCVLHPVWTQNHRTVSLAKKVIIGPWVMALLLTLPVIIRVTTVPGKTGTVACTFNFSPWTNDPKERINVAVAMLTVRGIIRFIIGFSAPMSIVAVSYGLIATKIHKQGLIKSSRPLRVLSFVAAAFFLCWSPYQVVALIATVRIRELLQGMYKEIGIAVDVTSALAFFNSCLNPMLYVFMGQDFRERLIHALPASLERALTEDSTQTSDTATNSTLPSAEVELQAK

[5] = target: Peroxisome proliferator-activated receptor gamma/Nuclear receptor coactivator 1 (Homo sapiens, UniProt P37231); format: functional;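 also: agonist potency as compounds enhance coactivator SRC-1 recruitment to PPARgamma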
Peroxisome proliferator-activated receptor gamma/Nuclear receptor coactivator 1, sequence (P37231 whole entry, the tested form may be a part): as the sequence (P37231 whole entry) above
Peroxisome proliferator-activated receptor gamma/Nuclear receptor coactivator 1, sequence (Q15788 whole entry, further chain, the tested form may be a part): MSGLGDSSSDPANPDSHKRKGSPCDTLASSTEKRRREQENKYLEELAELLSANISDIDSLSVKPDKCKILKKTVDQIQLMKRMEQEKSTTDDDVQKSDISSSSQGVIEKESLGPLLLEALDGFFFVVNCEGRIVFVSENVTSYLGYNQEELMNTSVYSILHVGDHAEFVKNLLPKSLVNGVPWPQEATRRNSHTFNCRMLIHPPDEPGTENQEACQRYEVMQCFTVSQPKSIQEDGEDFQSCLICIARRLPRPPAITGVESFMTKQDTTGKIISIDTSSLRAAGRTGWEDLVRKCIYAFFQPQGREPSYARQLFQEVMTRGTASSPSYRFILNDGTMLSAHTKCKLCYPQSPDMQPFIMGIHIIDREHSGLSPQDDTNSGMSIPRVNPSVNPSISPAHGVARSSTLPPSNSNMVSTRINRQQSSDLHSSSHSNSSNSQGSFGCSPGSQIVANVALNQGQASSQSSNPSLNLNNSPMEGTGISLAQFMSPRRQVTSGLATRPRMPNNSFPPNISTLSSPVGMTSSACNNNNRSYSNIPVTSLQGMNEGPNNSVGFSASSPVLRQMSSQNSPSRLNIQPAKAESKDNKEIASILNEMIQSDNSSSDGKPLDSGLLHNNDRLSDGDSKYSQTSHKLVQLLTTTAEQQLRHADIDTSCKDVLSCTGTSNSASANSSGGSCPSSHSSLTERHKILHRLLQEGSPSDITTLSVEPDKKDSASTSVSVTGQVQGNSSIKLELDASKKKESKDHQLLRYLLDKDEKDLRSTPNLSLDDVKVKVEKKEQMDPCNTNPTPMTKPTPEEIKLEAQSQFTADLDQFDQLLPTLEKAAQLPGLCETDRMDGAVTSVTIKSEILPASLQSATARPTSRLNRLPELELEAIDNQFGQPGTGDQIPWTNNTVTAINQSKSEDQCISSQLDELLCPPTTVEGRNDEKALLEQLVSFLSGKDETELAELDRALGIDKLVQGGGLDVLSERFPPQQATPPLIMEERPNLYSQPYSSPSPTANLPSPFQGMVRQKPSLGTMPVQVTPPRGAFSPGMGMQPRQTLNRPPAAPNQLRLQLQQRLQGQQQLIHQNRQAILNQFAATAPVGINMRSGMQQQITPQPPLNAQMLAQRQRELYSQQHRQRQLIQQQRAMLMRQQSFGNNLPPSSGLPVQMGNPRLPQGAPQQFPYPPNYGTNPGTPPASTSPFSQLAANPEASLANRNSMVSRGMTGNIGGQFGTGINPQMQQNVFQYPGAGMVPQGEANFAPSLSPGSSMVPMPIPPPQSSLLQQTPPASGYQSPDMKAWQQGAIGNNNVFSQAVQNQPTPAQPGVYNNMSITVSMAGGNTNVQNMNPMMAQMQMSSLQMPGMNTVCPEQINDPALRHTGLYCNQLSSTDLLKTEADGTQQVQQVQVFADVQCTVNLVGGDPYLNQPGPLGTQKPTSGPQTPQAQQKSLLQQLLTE

[6] = target: Nucleotide-binding oligomerization domain-containing protein 2 (Homo sapiens, UniProt Q9HC29); assay: NOD2 signaling inhibitors, cell-based, luminescence, uHTS, HEK293 (AID 1566); format: functional
HEK293 [7] = assay: NOD1 signaling inhibitors, primary screen, cell-based, luminescence, uHTS (AID 1578); format: functional; details: Homo sapiens
HEK293 [8] = assay: cells; format: functional, cell-based; details: Homo sapiens
HEK293 [9] = assay: NOD2 signaling inhibitors in MDP-stimulated cells, cell-based, uHTS, luminescence (AID 2001); format: functional; details: Homo sapiens
HEK293 [10] = assay: cells; format: functional, cell-based; details: Homo sapiens; remark: listed apart in the source
Streptokinase A = target: T3, Streptokinase A (Streptococcus pyogenes serotype M1, UniProt P10520); assay: S. pyogenes streptokinase expression inhibitors, potency, dose response, plasminogen activation absorbance, OD405 (AID 1914); format: functional, Streptococcus pyogenes M1 GAS;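 also: secreted streptokinase activity via plasminogen activation per viability signal from cell pellet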
T3 sequence (P10520 whole entry): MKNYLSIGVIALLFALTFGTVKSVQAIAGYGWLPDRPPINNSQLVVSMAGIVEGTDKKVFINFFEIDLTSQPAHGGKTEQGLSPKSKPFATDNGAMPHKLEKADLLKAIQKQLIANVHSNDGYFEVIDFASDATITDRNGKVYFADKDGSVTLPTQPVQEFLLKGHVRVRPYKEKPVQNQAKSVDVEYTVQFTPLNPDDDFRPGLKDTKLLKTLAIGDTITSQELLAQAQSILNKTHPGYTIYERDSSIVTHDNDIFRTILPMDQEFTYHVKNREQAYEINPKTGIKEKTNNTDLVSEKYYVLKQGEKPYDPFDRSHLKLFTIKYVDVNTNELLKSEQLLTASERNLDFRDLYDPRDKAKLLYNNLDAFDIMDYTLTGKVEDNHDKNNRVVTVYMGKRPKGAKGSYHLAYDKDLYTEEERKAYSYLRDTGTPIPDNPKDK

HEK293 [11] = assay: cells; format: functional, cell-based; details: Homo sapiens; remark: listed apart in the source
[12] = test system: Streptococcus sp. 'group A'; assay: growth inhibition of control SK(-) GAS strain, dose response, counter-screen for streptokinase expression inhibitor project, luminescence, kanamycin, BacTiterGlo, confirmation (AID 1900); format: functional, organism-based
Streptococcus = assay: Group A Streptococcus viability loss, dose response, counter-screen for streptokinase expression inhibitor project, luminescence, BacTiterGlo (AID 1915); format: functional, organism-based;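 also: potency for reduction of bacterial viability or growth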
[13] = target: T4, Ubiquitin-conjugating enzyme E2 N (Homo sapiens, UniProt P61088); format: functional;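 also: Dose-response confirmation in a TR-FRET assay detecting UBC13-driven polyubiquitin chain formation, inhibition measured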
T4 sequence (P61088 whole entry): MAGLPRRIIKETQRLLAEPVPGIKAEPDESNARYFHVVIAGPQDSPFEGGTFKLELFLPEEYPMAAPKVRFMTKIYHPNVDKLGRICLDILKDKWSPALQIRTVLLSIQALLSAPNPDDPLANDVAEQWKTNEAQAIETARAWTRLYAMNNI

Bcl-2-related protein A1 = target: T5, Bcl-2-related protein A1 (Mus musculus, UniProt Q07440); format: functional;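 also: confirmatory dose–response counterscreen on Bfl-1, used to check hits from a UBC13 polyubiquitin inhibitor campaign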
T5 sequence (Q07440 whole entry): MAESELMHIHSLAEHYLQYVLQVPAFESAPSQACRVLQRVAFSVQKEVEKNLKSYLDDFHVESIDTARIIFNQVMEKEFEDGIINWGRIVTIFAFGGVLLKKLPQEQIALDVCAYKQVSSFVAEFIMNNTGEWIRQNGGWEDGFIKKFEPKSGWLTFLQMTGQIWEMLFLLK

[14] = target: Alkaline phosphatase, placental type (Homo sapiens, UniProt P05187); assay: PLAP enzyme inhibitors, confirmation, biochemical, luminescence (AID 1512); format: functional
Alkaline phosphatase, placental type, sequence (P05187 whole entry): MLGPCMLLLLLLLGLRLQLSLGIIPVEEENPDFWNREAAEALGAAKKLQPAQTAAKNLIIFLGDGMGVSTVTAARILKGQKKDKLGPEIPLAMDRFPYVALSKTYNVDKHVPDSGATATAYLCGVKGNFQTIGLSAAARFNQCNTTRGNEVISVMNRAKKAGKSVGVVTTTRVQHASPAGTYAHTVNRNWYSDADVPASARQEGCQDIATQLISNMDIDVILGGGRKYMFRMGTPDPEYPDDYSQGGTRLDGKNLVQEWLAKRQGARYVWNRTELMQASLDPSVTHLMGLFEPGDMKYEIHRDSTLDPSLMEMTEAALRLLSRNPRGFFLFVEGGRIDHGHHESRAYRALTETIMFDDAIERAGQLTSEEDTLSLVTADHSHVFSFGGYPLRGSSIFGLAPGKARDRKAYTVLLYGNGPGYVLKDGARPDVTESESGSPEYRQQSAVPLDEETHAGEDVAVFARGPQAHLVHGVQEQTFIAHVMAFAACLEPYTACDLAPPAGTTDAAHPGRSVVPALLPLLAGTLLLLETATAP

[15] = NIH-3T3 fibroblast cytotoxicity, dose response, cytotoxicity control, cell-based, fluorescence, Alamar Blue, secondary assay (AID 2327); format: functional;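 also: NIH-3T3 mouse fibroblasts cultured with fluconazole at 8 µg/mL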
[16] = inhibitors of intracellular T. cruzi replication, confirmation, NIH3T3 host cells, beta-gal luminescence (AID 2044); format: functional, cell-based;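 also: intracellular parasites grown in NIH/3T3 mouse fibroblasts as host cells; luminescent beta-galactosidase reporter signal from transgenic T. cruzi replicating inside host cells; inhibitors lower the luminescence signal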
[17] = C. albicans growth with fluconazole, confirmation, fluorescence, retest (AID 2467); format: functional, cell-based
[18] = target: DNA dC->dU-editing enzyme APOBEC-3G (Homo sapiens, UniProt Q9HC16); format: functional;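 also: Dose-response counterscreen measuring inhibition of APOBEC3G DNA deaminase activity, run while confirming APOBEC3A inhibitors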
[19] = target: DNA dC->dU-editing enzyme APOBEC-3A (Homo sapiens, UniProt P31941); assay: Dose Response confirmation of small molecule APOBEC3A DNA Deaminase Inhibitors via a fluorescence-based single-stranded DNA deaminase assay. [Related pubchem assays (depositor defined):AID493011, AID493024]; format: functional
[20] = cytotoxicity toward NIH3T3 fibroblasts, dose response, counter-screen, cell-based, ATP luminescence, mouse fibroblasts (AID 2010); format: functional;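 also: cells exposed to compound for about 90 hours before reading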
Cytochrome P450 3A4 = Cytochrome P450 3A4 (Homo sapiens, UniProt P08684);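 also: CYP3A4 tested as one member of a cytochrome P450 panel screen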
Cytochrome P450 2C19 = Cytochrome P450 2C19 (Homo sapiens, UniProt P33261); assay: Cytochrome panel assay with activity outcomes. Panel member name: p450-cyp2c19 Compounds with AC50 equal or less than 10 uM are considered active; format: functional; details: read-out: AC50

Cn1c(=O)c2c(nc(SCC(=O)NCc3ccc4c(c3)OCO4)n2Cc2ccc(Cl)cc2)n(C)c1=O
AC50 (HeLa): 64.6 µM (active)

COc1cc(/C=N/NC(=O)Nc2ccccc2)ccc1OCCOc1ccccc1C
Absolute IC50 (XBP1) (X-box-binding protein 1): 10 µM

O=C(C1=C(O)C(=O)N(Cc2ccco2)C1c1cccc(Cl)c1)c1ccc2c(c1)OCCO2 (stereo not given)
IC50 (NS3): 4.61 µM (active)

COc1ccc(-c2nc(-c3ccc(NC(=O)c4ccc(Br)o4)cc3)no2)cc1OC
AC50 [1]: 22.8 µM (active) | AC50 [2]: 2.21 µM (active) | Absolute IC50 (XBP1) (X-box-binding protein 1): 10 µM | EC50 [3]: > 79.4 µM (not active) | EC50 [4]: 49.2 µM (not active) | Ki (fMet-Leu-Phe receptor): > 66.7 µM (inactive) | EC50 [5]: > 79.4 µM (not active)

CCCCc1nc(N2CCN(C(=O)c3ccco3)CC2)c(C#N)c2c1CCCC2
EC50 [6]: 7.59 µM (active) | EC50 (HEK293 [7]): 10.1 µM (active) | IC50 (HEK293 [8]): 15.6 µM (active) | IC50 (HEK293 [9]): 12.2 µM (inactive) | IC50 (HEK293 [10]): 11.9 µM (active) | EC50 (Streptokinase A): 8.54 µM (active) | IC50 (HEK293 [11]): > 20 µM (inactive) | EC50 [12]: 7.4 µM (active) | EC50 (Streptococcus): 14.4 µM (active)

Cc1ccc(N(C(=O)c2snc(C(N)=O)c2N)C(C(=O)NCC2CCCO2)c2c[nH]c3ccccc23)cc1 (stereo not given)
IC50 [13]: 12.1 µM (active) | IC50 (Bcl-2-related protein A1): > 20 µM (inactive)

Cc1cc(=O)[nH]c(-n2[nH]c(C)cc2=O)n1
IC50 [14]: > 100 µM (inactive)

CN(/C=C/C1=[N+](C)c2ccccc2C1(C)C)c1ccccc1
EC50 [15]: > 160 µM (inactive) | EC50 [16]: 0.335 µM (active) | EC50 [17]: > 38 µM (not active) | IC50 [18]: 2.31 µM (active) | IC50 [19]: 1.67 µM (active) | EC50 [20]: > 60 µM (inconclusive) | AC50 (Cytochrome P450 3A4): 31.6 µM (inconclusive) | AC50 (Cytochrome P450 2C19): 0.00708 µM (inconclusive)
